# Assay results reported in patent publication US11197885B2, “Collagen enhancing agent made from low acyl gellan gum, methods of making and methods of using the same” (The University of Toledo, priority 2015, dated 2021).
# Key:
# [1] = tested on: pCREB in mouse cortical neurons; assay: nuclear pCREB in midi-GAGR-treated mouse cortical neurons pre-treated with signaling inhibitors; assay type: cell-based; settings: inhibitor 6 h (SU5402 4 μM, staurosporine 3 nM, U0126 10 μM, LY294002 20 μM, KN-62 10 μM, PF-573228 1 μM), then 1 μM midi-GAGR 48 h
# Experimental: (§1) To analyze the effect of polysaccharides on neurite outgrowth, primary mouse cortical neurons were treated with vehicle (H2O) or 1 μM of dextran, alginate, or midi-GAGR, 0.01 μM of HA-GAGR, or 0.1 μM of LA-GAGR for 2 days prior to immunocytochemistry using anti-α-tubulin antibody and secondary Alexa488nm antibody. An etched grid coverslip containing 200 numbered boxes was used to select neurons objectively for image acquisition and analysis. A total of 24 boxes were randomly selected per treatment group. All the neurons having total neurite length longer than 4 times of the diameter of neuron cell body were chosen for image analysis. The total length of the neurites of each neuron was measured using Metamorph and used to calculate average total neurite length. To examine the effect of polysaccharides on the phosphorylation (activation) of nuclear CREB, neurons were stained with anti-pCREB antibody (Abcam & Santa Cruz biotechnologies, 2nd antibody with Alexa568nm), anti-α-tubulin antibody (Sigma, 2nd antibody with Alexa488nm), and DAPI (Sigma) after two-day incubation with vehicle (H2O) or 1 μM of dextran, alginate, or midi-GAGR, 0.01 μM of HA-GAGR, or 0.1 μM of LA-GAGR. […] The images of neurons on coverslips were taken by confocal microscopy at the same gain (850), offset (−0.01), and exposure time (2 sec). The intensity of the staining of nuclear pCREB was measured using Metamorph and used to calculate average intensity. In addition, the phosphorylation of CREB in the cytosols of mouse cortical neurons treated with polysaccharides were detected by immunoblotting. Primary mouse neurons were dissected from 16 mouse embryos (E17) and plated in the wells of 6-well plates (1×10^6 cells/well), differentiated for 6 days, and treated with polysaccharides for 48 h. Then, neurons were harvested and lysed in 1% Igepal CA-630 (Sigma)-containing PMEE buffer plus protease and phosphatase inhibitor cocktails (Sigma) for protein extraction. Extracted proteins were separated in 4-12% NuPAGE Bis-Tris protein gels (Life Technologies) and transferred to nitrocellulose membrane (GE Healthcare Life Science, Pittsburgh, Pa.) using a semidry blotter (Hoefer, Inc., San Francisco, Calif.). The protein bands on blots recognized by anti-pCREB (Santa Cruz Biotechnologies) and anti-CREB antibodies were detected on Amersham Hyperfilm™ ECL films (GE Healthcare Life Science) using SuperSignal® West Pico Chemiluminescent Substrate (Thermo Scientific).
# Pharmacological agents were used to inhibit signaling molecules downstream of FGFR1 that mediate CREB phosphorylation. […] PF-573228 (PF, 1 μM) that inhibits FAK which sits at the bottleneck of the signaling pathway downstream of NCAM180 was also included to examine whether NCAM180 is involved in midi-GAGR-mediated CREB phosphorylation or not. […]
# [2] = tested on: rat cortical neurons (E17, DIV6); assay: FGFR1 dependence of neuroprotection against 4HNE, LIVE/DEAD assay; assay type: cell-based
# Excerpt: The protective effect of polysaccharides on primary cortical neurons from 4HNE, H2O2, and Aβ42 peptide (Sigma) was examined using LIVE/DEAD® Viability/Cytotoxicity Assay Kit (Life Technologies). Female pregnant mice (BALB/C, E17, Charles River Laboratories International, Inc.) or female pregnant SD rats (E17, bred in house) were anesthetized and dissected to obtain 8-9 embryos per animal. Cortical neurons were isolated from embryonic brains and differentiated on poly-L-lysine-coated coverslips in B27/neurobasal medium. For drug treatment before free radical treatment, mouse cortical neurons (5 days in vitro [DIV5]) were treated with vehicle (H2O), 1 μM of 5 kD dextran (Sigma), alginate (Sigma), midi-GAGR, 0.01 μM of high acyl gellan gum (HA-GAGR, CPKelco Co.), or 0.1 μM of LA-GAGR for 24 h and then treated with 10 μM 4HNE or 50 μM H2O2 for 24 h, or 2 μM Aβ42 peptide for 48 h prior to viability/cytotoxicity assay. For drug co-treatment with free radicals, rat cortical neurons (DIV5) were treated with 1 μM of dextran, alginate, or midi-GAGR, 0.01 μM of HA-GAGR, or 0.1 μM of LA-GAGR along with either 10 μM 4HNE (24 h) or 2 μM Aβ42 peptide (48 h). […]
# [3] = tested on: pCREB in mouse cortical neurons; assay: nuclear pCREB immunostaining in mouse cortical neurons (Example 4); assay type: cell-based; settings: 48 h; midi-GAGR, alginate, dextran 1 μM; LA-GAGR 0.1 μM; HA-GAGR 0.01 μM
# Experimental: (§2) To analyze the effect of polysaccharides on neurite outgrowth, primary mouse cortical neurons were treated with vehicle (H2O) or 1 μM of dextran, alginate, or midi-GAGR, 0.01 μM of HA-GAGR, or 0.1 μM of LA-GAGR for 2 days prior to immunocytochemistry using anti-α-tubulin antibody and secondary Alexa488nm antibody. An etched grid coverslip containing 200 numbered boxes was used to select neurons objectively for image acquisition and analysis. A total of 24 boxes were randomly selected per treatment group. All the neurons having total neurite length longer than 4 times of the diameter of neuron cell body were chosen for image analysis. The total length of the neurites of each neuron was measured using Metamorph and used to calculate average total neurite length. […] The intensity of the staining of nuclear pCREB was measured using Metamorph and used to calculate average intensity. In addition, the phosphorylation of CREB in the cytosols of mouse cortical neurons treated with polysaccharides were detected by immunoblotting. […] The protein bands on blots recognized by anti-pCREB (Santa Cruz Biotechnologies) and anti-CREB antibodies were detected on Amersham Hyperfilm™ ECL films (GE Healthcare Life Science) using SuperSignal® West Pico Chemiluminescent Substrate (Thermo Scientific). […]
# [4] = tested on: pCREB in mouse cortical neurons; assay: pCREB immunoblotting of cytosols of mouse cortical neurons; assay type: cell-based; settings: 48 h, same concentrations
# Experimental: as §2
# [5] = tested on: primary mouse cortical neurons (E17, DIV4); assay: neurite outgrowth in primary mouse cortical neurons; assay type: cell-based; settings: 2 days; midi-GAGR, dextran, alginate 1 μM; LA-GAGR 0.1 μM; HA-GAGR 0.01 μM
# Experimental: as §1, with “Then, neurons were harvested and lysed in 1% Igepal CA-630 (Sigma)-containing PMEE buffer plus protease and phosphatase inhibitor cocktails (Sigma) for protein extraction. Extracted proteins were separated in 4-12% NuPAGE Bis-Tris protein gels (Life Technologies) and transferred to nitrocellulose membrane (GE Healthcare Life Science, Pittsburgh, Pa.) using a semidry blotter (Hoefer, Inc., San Francisco, Calif.).” left out
# [6] = ABTS Antioxidant Assay Kit; assay type: biochemical; settings: 10 μM
# Experimental: The antioxidant capacity of midi-GAGR was measured using ABTS Antioxidant Assay Kit (Zenbio Co.). […] This was slightly stronger than antioxidant capacity of LA-GAGR (10 μM LA-GAGR=15.4 μM trolox) (Table 2).
# [7] = tested on: mouse cortical neurons (E17, DIV5); assay: LIVE/DEAD assay, pre-treatment of mouse cortical neurons before 4HNE, H2O2 or Aβ42; assay type: cell-based
# Excerpt: The protective effect of polysaccharides on primary cortical neurons from 4HNE, H2O2, and Aβ42 peptide (Sigma) was examined using LIVE/DEAD® Viability/Cytotoxicity Assay Kit (Life Technologies). Female pregnant mice (BALB/C, E17, Charles River Laboratories International, Inc.) or female pregnant SD rats (E17, bred in house) were anesthetized and dissected to obtain 8-9 embryos per animal. Cortical neurons were isolated from embryonic brains and differentiated on poly-L-lysine-coated coverslips in B27/neurobasal medium. For drug treatment before free radical treatment, mouse cortical neurons (5 days in vitro [DIV5]) were treated with vehicle (H2O), 1 μM of 5 kD dextran (Sigma), alginate (Sigma), midi-GAGR, 0.01 μM of high acyl gellan gum (HA-GAGR, CPKelco Co.), or 0.1 μM of LA-GAGR for 24 h and then treated with 10 μM 4HNE or 50 μM H2O2 for 24 h, or 2 μM Aβ42 peptide for 48 h prior to viability/cytotoxicity assay. For drug co-treatment with free radicals, rat cortical neurons (DIV5) were treated with 1 μM of dextran, alginate, or midi-GAGR, 0.01 μM of HA-GAGR, or 0.1 μM of LA-GAGR along with either 10 μM 4HNE (24 h) or 2 μM Aβ42 peptide (48 h). To examine the extent to which midi-GAGR-mediated neuroprotection depends on FGFR1, rat cortical neurons (E17, DIV5) were pre-treated with 4 μM SU5402 (Sigma) for 6 h and treated with 10 μM 4HNE and either vehicle or 1 μM midi-GAGR for 24 h prior to cell viability/cytotoxicity assay. As controls, neurons were treated with SU5402, midi-GAGR, 4HNE, 4HNE plus midi-GAGR, or SU5402 plus midi-GAGR.
# For cell viability/cytotoxicity measurement, neurons on glass coverslips were incubated in 1×PBS containing 2 μM calcein AM (live cells: green) and 4 μM ethidium homodimer-1 (dead cells: red) for 10 min at 37° C. Immediately thereafter, neurons were imaged by 10×objective using a fluorescence Olympus IX71 microscope (Olympus America Inc., Center Valley, Pa.) and, for the acquisition of high-quality images, using TCS SP5 multi-photon laser scanning confocal microscope.
# Midi-GAGR attenuated neurite atrophy caused by free reactive radicals. It is now shown herein that midi-GAGR protect neurons from the death caused by free radical insults. The extent to which midi-GAGR protects the primary culture of rodent cortical neurons from 4HNE and H2O2 was determined. In addition to the radicals, amyloid β peptide (Aβ42) was also tested. Aβ42 peptide is a major causative factor that causes oxidative stress and neuron death. Mouse cortical neurons (E17, DIV5) were treated with 10 μM 4HNE (24 h), 50 μM H2O2 (24 h), or 2 μM Aβ42 peptide (48 h) after the treatment of the neurons with vehicle (H2O), midi-GAGR (1 μM), dextran (1 μM), alginate (1 μM), LA-GAGR (0.1 μM), or HA-GAGR (0.01 μM) for 24 h. The concentrations of 4HNE, H2O2, and Aβ42 peptide were chosen according to their patho-physiological concentrations. The concentrations of LA-GAGR and HA-GAGR were chosen because, within the same volume, the total numbers of sugar units in the polysaccharides at the concentrations are close to that of 1 μM midi-GAGR. The viability of neurons was assessed using LIVE/DEAD® Viability/Cytotoxicity Assay Kit in which membrane-permeant calcein AM is cleaved by esterase in live cells, thus yielding green fluorescence, and membrane-impermeant ethidium homodimer-1 stains the nucleic acids of plasma membrane-compromised cells with red fluorescence. The numbers of green (live) and red (dead) neurons in each condition were counted using Metamorph. Although the intensities of green fluorescent signals in neurons treated with either free radicals or Aβ42 peptide were weak, the neurons were included in the counting. About 8-9% of vehicle-treated neurons died during the process of live/dead cell assay (FIGS. 23A-23F, FIGS. 24A-24C).
# [8] = tested on: phosphorylated CREB in mouse embryonic cortical neurons; assay: nuclear p-CREB immunostaining in embryonic cortical neurons (Example 2); assay type: cell-based; settings: 1 μM, 24 h
# Experimental: (§3) Differentiated PC12 cells and mouse embryonic cortical neurons (E17, DIV14) were treated with mock, dextran, alginate, HA-GAGR, or midi-GAGR (1 μM) for 24 h and fixed in 3.7% paraformaldehyde. The fixed cells and neurons were immunostained with antibodies against α-tubulin and phosopho-CREB (p-CREB) along with DAPI (nucleus).
# [9] = tested on: phosphorylated CREB in differentiated PC12 cells; assay: nuclear p-CREB immunostaining in differentiated PC12 cells; assay type: cell-based; settings: 1 μM, 24 h
# Experimental: as §3
# [10] = tested on: differentiated dopaminergic PC12 cells exposed to 30 μM 6-OHDA; assay: LIVE/DEAD viability of differentiated PC12 cells exposed to 6-OHDA; assay type: cell-based; settings: 1 μM for 6 h, then 30 μM 6-OHDA for 24 h
# Experimental: Differentiated dopaminergic PC12 cells and primary mouse embryonic cortical neurons (E17, DIV14) were treated with mock (H2O) or 1 μM of dextran, alginate, HA-GAGR, or midi-GAGR for 6 h and insulated by oxidative stressors (30 μM 6-OHDA [PC12] and 10 μM amyloid β peptide [cortical neurons]) for 24 h.
# [11] = pre-treatment 24 h (midi-GAGR, alginate, dextran 1 μM; LA-GAGR 0.1 μM; HA-GAGR 0.01 μM), then 10 μM 4HNE 24 h
# [12] = pre-treatment 24 h (same concentrations), then 2 μM Aβ42 peptide 48 h
# [13] = pre-treatment 24 h (same concentrations), then 50 μM H2O2 24 h
Compound,effect of inhibitor pre-treatment on average intensity of pCREB in midi-GAGR-treated neurons [1],fold change in average total neurite length vs vehicle [5],"percent of neuron death [7, 11]","percent of neuron death [7, 12]","percent of neuron death [7, 13]",other results
CN([C@@H](Cc1ccc(OS(=O)(=O)c2cccc3cnccc23)cc1)C(=O)N1CCN(c2ccccc2)CC1)S(=O)(=O)c1cccc2cnccc12 [KN-62],decreased slightly but still statistically significantly,,,,,
CS(=O)(=O)c1cccc(CNc2nc(Nc3ccc4c(c3)CCC(=O)N4)ncc2C(F)(F)F)c1 [PF-573228],did not decrease,,,,,
Cc1c[nH]c(/C=C2\C(=O)Nc3ccccc32)c1CCC(=O)O [SU5402],significantly decreased,,,,,"percent of dead cells ([2]; SU5402 4 μM alone, no 4HNE): did not increase; percent of dead cells ([2]; SU5402 4 μM pre-treatment 6 h, then 10 μM 4HNE): ~80%"
N#CC(=C(/N)Sc1ccccc1N)/C(C#N)=C(\N)Sc1ccccc1N [U0126],significantly decreased,,,,,
[D-Glc(β1→4)D-GlcA(β1→4)D-Glc(β1→4)L-Rha(α1→3)]n [LA-GAGR],,~1.6 fold,10%,~10%,~13%,"average intensity of nuclear pCREB vs vehicle [3]: ~2 fold; levels of pCREB by immunoblotting vs control [4]: significantly increased; antioxidant capacity, ABTS assay [6]: 15.4 μM Trolox"
alginate,,did not enhance neuritogenesis,reduced,did not decrease,did not reduce,increase in levels of nuclear p-CREB [8]: not significantly increased; increase in levels of nuclear p-CREB [9]: not significantly increased; 6-OHDA-induced cell death [10]: did not
